A short description of experiment [1]: Affinity constant for Pb from the NMR results of examples 2 to 4. It counts as binding. Conditions: aqueous solution (D2O), 298 K. As to the method: (§1) To an aqueous solution of the permethyl derivative obtained in example 1 is added an aqueous lead nitrate solution in order to obtain an aqueous solution containing 3 mmole/l of permethyl derivative and 1 mmole/l of lead nitrate. The solution obtained is analyzed by nuclear magnetic resonance under the same conditions as in example 1 (500 MHz, D2O, 298 K).
(§2) The same operating procedure as in example 2 is followed, but the aqueous solution incorporates 3 mmole/l of the permethyl derivative of example 1 and 3 mmole/l of lead nitrate.
(§3) The same operating procedure as in example 3 is followed, but addition also takes place of sodium nitrate so as to obtain an aqueous solution incorporating 3 mmole/l of the permethyl derivative of example 1, 3 mmole/l of lead nitrate and 3 mmole/l of sodium nitrate.

A short description of experiment [2]: Formation of the lead complex in aqueous solution, followed by proton NMR. It counts as binding. Here is the method: as §1
In this case, the exchange is sufficiently slow compared with the NMR observation time, to observe the two signals corresponding to the free cyclodextrin (FIG. 1(a)) and to the complex (FIG. 1(b)).
as §2, §3

On to “hexakis (3,6-anhydro)cyclomaltohexaose [reference compound]”, for which the “affinity constant for Pb” value in experiment [1] is listed as “approximately 2500”.

“Hexakis (3,6-Anhydro-2-0-methyl)cyclomaltohexaose [Example 1]”: the “affinity constant for Pb” value in experiment [1] is given as “approximately 10^5”. For the same substance, the “NMR spectrum of the lead complex in presence of sodium ions” value in experiment [2] (3 mmole/l derivative, 3 mmole/l lead nitrate, 3 mmole/l sodium nitrate) is “not modified”. Further, the “lead complexation (respective surfaces of free and complexed parts)” value in experiment [2] (3 mmole/l permethyl derivative, 1 mmole/l lead nitrate, D2O, 298 K, 500 MHz, free:complexed 2 for 1) was “all the lead present is complexed”. The “lead complexation (NMR signals)” value in experiment [2] (3 mmole/l permethyl derivative, 3 mmole/l lead nitrate, D2O, 298 K) is recorded as “only the signals of the complex are visible”.

For the origin of these results see patent US6544964B1, “Method for fixing or separating ions, in particular of lead, using per(3,6-anhydro)cy-clodextrin derivatives” (priority 1997, dated 2003).
